From EP0407583A1, “DERIVATIVES OF DICHLOR[…] ACYLAMIDO[…] AND INSECTICIDAL, FU[…] HEMATOCIDAL PREPARATIONS BASED ON THEM” (priority 1989, dated 1990)

Tests used:
[1] = test system: Rhoma betae; assay: Inhibition of phytopathogenic fungi, field test on affected potato plants; format: in vivo; conditions: 5 m^2 plots of affected potato plants sprayed
Excerpt: (§1) For field tests the plots of 5 m^2 in size with potato plants affected by Fusarium moniliforme, Venturia inaequalis, Rhyzoctonia violaceae, Botrytis cinereae, Verticillium albo-atrum, Diplodia zeae, Fusarium oxysporum, Rhoma betae, Rhyzoctonia aderholdii, Aspergillus niger, Alternaria sobani, Botrytis allii, Aspergillus fumigatis, Fusarium culmorum, Penicillium cyclopium were sprayed with the fungicide of the invention. To compare, the similar plots of the affected potato plants were aprayed with the known compositions indicated above.

[2] = test system: Diplodia zeae; assay: as above; format: in vivo; conditions: 5 m^2 plots of affected potato plants sprayed
Excerpt: as §1

[3] = test system: Rhyzoctonia violaceae; assay: as above; format: in vivo; conditions: 5 m^2 plots of affected potato plants sprayed
Excerpt: as §1

[4] = test system: Botrytis cinereae; assay: as above; format: in vivo; conditions: 5 m^2 plots of affected potato plants sprayed
Excerpt: as §1

[5] = test system: Venturia inaequalis; assay: as above; format: in vivo; conditions: 5 m^2 plots of affected potato plants sprayed
Excerpt: as §1

[6] = test system: Botrytis allii; assay: as above; format: in vivo; conditions: 5 m^2 plots of affected potato plants sprayed
Excerpt: as §1

[7] = test system: Fusarium moniliforme; assay: as above; format: in vivo; conditions: 5 m^2 plots of affected potato plants sprayed
Excerpt: as §1

[8] = test system: Fusarium culmorum; assay: as above; format: in vivo; conditions: 5 m^2 plots of affected potato plants sprayed
Excerpt: as §1

[9] = test system: Verticillium albo-atrum; assay: as above; format: in vivo; conditions: 5 m^2 plots of affected potato plants sprayed
Excerpt: as §1

[10] = test system: Rhyzoctonia aderholdii; assay: as above; format: in vivo; conditions: 5 m^2 plots of affected potato plants sprayed
Excerpt: as §1

[11] = test system: Aspergillus fumigatis; assay: as above; format: in vivo; conditions: 5 m^2 plots of affected potato plants sprayed
Excerpt: as §1

[12] = test system: Fusarium oxysporum; assay: as above; format: in vivo; conditions: 5 m^2 plots of affected potato plants sprayed
Excerpt: as §1

[13] = test system: Penicillium cyclopium; assay: as above; format: in vivo; conditions: 5 m^2 plots of affected potato plants sprayed
Excerpt: as §1

[14] = test system: Aspergillus niger; assay: as above; format: in vivo; conditions: 5 m^2 plots of affected potato plants sprayed
Excerpt: as §1

[15] = test system: Alternaria sobani; assay: as above; format: in vivo; conditions: 5 m^2 plots of affected potato plants sprayed
Excerpt: as §1

[16] = Solubility (qualitative); conditions: water, alcohols, acetone
[17] = test system: Rhoma betae; assay: Inhibition of phytopathogenic fungi growth, laboratory test on potato-dextrose agar; format: cell-based; conditions: active principle 0.01 % by mass in potato-dextrose agar
Procedure: (§2) A fungicidal composition based on this compound was prepared in the form of a 0.01% solution thereof in distilled water. A fungicidal action of the composition, according to the invention, was tested for inhibition of vegetative fungi growth such as Fusarium moniliforme, Ventura inaequalis, Rhyzoctonia ciolaceae, Botrytis cinereae, Verticillium albo-atrum, Diplodia zeae, Fusarium oxysporum, Rhoma betae, Rhyzoctonia aderholdii, Aspergillus niger, Alternaria sobani, Botrytis allii, Aspergillus fumigatis, Fusarium culmorum, Penicillium cyclopium affecting potato, sugar beet, cotton seeds either in laboratory or field conditions. For testing it to the Petri dishes containing potato-dextrose agar the composition of the invention was.added at the concentration of an active principle of 0.01 % by mass. The Petri dishes containing the same agar culture were inoculated with a mycelium of phytopathogenic fungi. For control dishes the phytopathogenic fungi were inoculated on agar without using the composition of the invention. A fungicidal effect of the composition, according to the invention was tested in comparison with the known fungicidal compositions based on 2,3-dichloro-1,4-naphthoquinone, zinc N,N'-ethylene-bis-dithiocarbamate and tetramethylthiuram disulphide.

[18] = test system: Diplodia zeae; assay: as above; format: cell-based; conditions: active principle 0.01 % by mass in potato-dextrose agar
Procedure: as §2

[19] = test system: Rhyzoctonia violaceae; assay: as above; format: cell-based; conditions: active principle 0.01 % by mass in potato-dextrose agar
Procedure: as §2

[20] = test system: Botrytis cinereae; assay: as above; format: cell-based; conditions: active principle 0.01 % by mass in potato-dextrose agar
Procedure: as §2

[21] = test system: Venturia inaequalis; assay: as above; format: cell-based; conditions: active principle 0.01 % by mass in potato-dextrose agar
Procedure: as §2

[22] = test system: Botrytis allii; assay: as above; format: cell-based; conditions: active principle 0.01 % by mass in potato-dextrose agar
Procedure: as §2

[23] = test system: Fusarium moniliforme; assay: as above; format: cell-based; conditions: active principle 0.01 % by mass in potato-dextrose agar
Procedure: as §2

[24] = test system: Fusarium culmorum; assay: as above; format: cell-based; conditions: active principle 0.01 % by mass in potato-dextrose agar
Procedure: as §2

[25] = test system: Verticillium albo-atrum; assay: as above; format: cell-based; conditions: active principle 0.01 % by mass in potato-dextrose agar
Procedure: as §2

[26] = test system: Rhyzoctonia aderholdii; assay: as above; format: cell-based; conditions: active principle 0.01 % by mass in potato-dextrose agar
Procedure: as §2

[27] = test system: Aspergillus fumigatis; assay: as above; format: cell-based; conditions: active principle 0.01 % by mass in potato-dextrose agar
Procedure: as §2

[28] = test system: Fusarium oxysporum; assay: as above; format: cell-based; conditions: active principle 0.01 % by mass in potato-dextrose agar
Procedure: as §2

[29] = test system: Penicillium cyclopium; assay: as above; format: cell-based; conditions: active principle 0.01 % by mass in potato-dextrose agar
Procedure: as §2

[30] = test system: Aspergillus niger; assay: as above; format: cell-based; conditions: active principle 0.01 % by mass in potato-dextrose agar
Procedure: as §2

[31] = test system: Alternaria sobani; assay: as above; format: cell-based; conditions: active principle 0.01 % by mass in potato-dextrose agar
Procedure: as §2

Structure (SMILES): O=C(NP(=O)(NC(CO)C(O)c1ccc([N+](=O)[O-])cc1)NC(CO)C(O)c1ccc([N+](=O)[O-])cc1)c1ccc(Cl)cc1 (centres unmarked) [Example 12, para-chlorobenzoylamidophosphoric acid di-1-para-nitrophenyl-1,3-propandiol-2-amide]
- Inhibition of growth of phytopathogenic fungi colonies, % Rhoma betae test field [1]: 63%
- Inhibition of growth of phytopathogenic fungi colonies, % Diplodia zeae test field [2]: 98%
- Inhibition of growth of phytopathogenic fungi colonies, % Rhyzoctonia violaceae test field [3]: 22%
- Inhibition of growth of phytopathogenic fungi colonies, % Botrytis cinereae test field [4]: 33%
- Inhibition of growth of phytopathogenic fungi colonies, % Venturia inaequalis test field [5]: 65%
- Inhibition of growth of phytopathogenic fungi colonies, % Botrytis allii test field [6]: 99%
- Inhibition of growth of phytopathogenic fungi colonies, % Fusatium monili-forme test field [7]: 56%
- Inhibition of growth of phytopathogenic fungi colonies, % Fusarium culmorum Tests field [8]: 61%
- Inhibition of growth of phytopathogenic fungi colonies, % Verticillium albo--atrum test field [9]: 100%
- Inhibition of growth of phytopathogenic fungi colonies, % Rhyzoctonia aderholdii test field [10]: 100%
- Inhibition of growth of phytopathogenic fungi colonies, % Aspergillus fumigatis Tests field [11]: 80%
- Inhibition of growth of phytopathogenic fungi colonies, % Fusarium oxysporum test field [12]: 59%
- Inhibition of growth of phytopathogenic fungi colonies, % Penicillium cyclopium Tests field [13]: 84%
- Inhibition of growth of phytopathogenic fungi colonies, % Aspergillus niger test field [14]: 59%
- Inhibition of growth of phytopathogenic fungi colonies, % Alternaria sobani test field [15]: 46%
- solubility [16]: soluble in water, alcohols, acetone
- Inhibition of growth of phytopathogenic fungi colonies, % Rhoma betae test laboratory [17]: 64%
- Inhibition of growth of phytopathogenic fungi colonies, % Diplodia zeae test laboratory [18]: 100%
- Inhibition of growth of phytopathogenic fungi colonies, % Rhyzoctonia violaceae test laboratory [19]: 24%
- Inhibition of growth of phytopathogenic fungi colonies, % Botrytis cinereae test laboratory [20]: 34%
- Inhibition of growth of phytopathogenic fungi colonies, % Venturia inaequalis test laboratory [21]: 70%
- Inhibition of growth of phytopathogenic fungi colonies, % Botrytis allii test laboratory [22]: 100%
- Inhibition of growth of phytopathogenic fungi colonies, % Fusatium monili-forme test laboratory [23]: 59%
- Inhibition of growth of phytopathogenic fungi colonies, % Fusarium culmorum Tests laboratory [24]: 66%
- Inhibition of growth of phytopathogenic fungi colonies, % Verticillium albo--atrum test laboratory [25]: 100%
- Inhibition of growth of phytopathogenic fungi colonies, % Rhyzoctonia aderholdii test laboratory [26]: 100%
- Inhibition of growth of phytopathogenic fungi colonies, % Aspergillus fumigatis Tests laboratory [27]: 87%
- Inhibition of growth of phytopathogenic fungi colonies, % Fusarium oxysporum test laboratory [28]: 60%
- Inhibition of growth of phytopathogenic fungi colonies, % Penicillium cyclopium Tests laboratory [29]: 87%
- Inhibition of growth of phytopathogenic fungi colonies, % Aspergillus niger test laboratory [30]: 66%
- Inhibition of growth of phytopathogenic fungi colonies, % Alternaria sobani test laboratory [31]: 48%

Structure (SMILES): CN(C)C(=S)SSC(=S)N(C)C [tetramethylthi-uram disulphide, tetramethylthiuram disulphide, reference compound]
- Inhibition of growth of phytopathogenic fungi colonies, % Rhoma betae test field [1]: 59%
- Inhibition of growth of phytopathogenic fungi colonies, % Fusarium culmorum Tests field [8]: 98%
- Inhibition of growth of phytopathogenic fungi colonies, % Rhyzoctonia aderholdii test field [10]: 99%
- Inhibition of growth of phytopathogenic fungi colonies, % Aspergillus fumigatis Tests field [11]: 80%
- Inhibition of growth of phytopathogenic fungi colonies, % Penicillium cyclopium Tests field [13]: 64%
- Inhibition of growth of phytopathogenic fungi colonies, % Aspergillus niger test field [14]: 98%
- Inhibition of growth of phytopathogenic fungi colonies, % Rhoma betae test laboratory [17]: 60%
- Inhibition of growth of phytopathogenic fungi colonies, % Fusarium culmorum Tests laboratory [24]: 100%
- Inhibition of growth of phytopathogenic fungi colonies, % Rhyzoctonia aderholdii test laboratory [26]: 100%
- Inhibition of growth of phytopathogenic fungi colonies, % Aspergillus fumigatis Tests laboratory [27]: 81%
- Inhibition of growth of phytopathogenic fungi colonies, % Penicillium cyclopium Tests laboratory [29]: 65%
- Inhibition of growth of phytopathogenic fungi colonies, % Aspergillus niger test laboratory [30]: 100%

Structure (SMILES): O=C(NP(=O)(Nc1ccc(Cl)cc1Cl)Nc1ccc(Cl)cc1Cl)c1ccc(Br)cc1 [Example 13, para-bromobenzoylamidophosphoric acid di-2,4-dichloroanil-ide]
- Inhibition of growth of phytopathogenic fungi colonies, % Rhoma betae test field [1]: 62%
- Inhibition of growth of phytopathogenic fungi colonies, % Diplodia zeae test field [2]: 100%
- Inhibition of growth of phytopathogenic fungi colonies, % Rhyzoctonia violaceae test field [3]: 47%
- Inhibition of growth of phytopathogenic fungi colonies, % Botrytis cinereae test field [4]: 0%
- Inhibition of growth of phytopathogenic fungi colonies, % Venturia inaequalis test field [5]: 44%
- Inhibition of growth of phytopathogenic fungi colonies, % Botrytis allii test field [6]: 100%
- Inhibition of growth of phytopathogenic fungi colonies, % Fusatium monili-forme test field [7]: 74%
- Inhibition of growth of phytopathogenic fungi colonies, % Fusarium culmorum Tests field [8]: 93%
- Inhibition of growth of phytopathogenic fungi colonies, % Verticillium albo--atrum test field [9]: 46%
- Inhibition of growth of phytopathogenic fungi colonies, % Rhyzoctonia aderholdii test field [10]: 100%
- Inhibition of growth of phytopathogenic fungi colonies, % Aspergillus fumigatis Tests field [11]: 50%
- Inhibition of growth of phytopathogenic fungi colonies, % Fusarium oxysporum test field [12]: 43%
- Inhibition of growth of phytopathogenic fungi colonies, % Penicillium cyclopium Tests field [13]: 93%
- Inhibition of growth of phytopathogenic fungi colonies, % Aspergillus niger test field [14]: 34%
- Inhibition of growth of phytopathogenic fungi colonies, % Alternaria sobani test field [15]: 100%
- Inhibition of growth of phytopathogenic fungi colonies, % Rhoma betae test laboratory [17]: 64%
- Inhibition of growth of phytopathogenic fungi colonies, % Diplodia zeae test laboratory [18]: 100%
- Inhibition of growth of phytopathogenic fungi colonies, % Rhyzoctonia violaceae test laboratory [19]: 46%
- Inhibition of growth of phytopathogenic fungi colonies, % Botrytis cinereae test laboratory [20]: 0%
- Inhibition of growth of phytopathogenic fungi colonies, % Venturia inaequalis test laboratory [21]: 45%
- Inhibition of growth of phytopathogenic fungi colonies, % Botrytis allii test laboratory [22]: 100%
- Inhibition of growth of phytopathogenic fungi colonies, % Fusatium monili-forme test laboratory [23]: 75%
- Inhibition of growth of phytopathogenic fungi colonies, % Fusarium culmorum Tests laboratory [24]: 100%
- Inhibition of growth of phytopathogenic fungi colonies, % Verticillium albo--atrum test laboratory [25]: 47%
- Inhibition of growth of phytopathogenic fungi colonies, % Rhyzoctonia aderholdii test laboratory [26]: 100%
- Inhibition of growth of phytopathogenic fungi colonies, % Aspergillus fumigatis Tests laboratory [27]: 53%
- Inhibition of growth of phytopathogenic fungi colonies, % Fusarium oxysporum test laboratory [28]: 44%
- Inhibition of growth of phytopathogenic fungi colonies, % Penicillium cyclopium Tests laboratory [29]: 100%
- Inhibition of growth of phytopathogenic fungi colonies, % Aspergillus niger test laboratory [30]: 35%
- Inhibition of growth of phytopathogenic fungi colonies, % Alternaria sobani test laboratory [31]: 100%

Structure (SMILES): O=C1C(Cl)=C(Cl)C(=O)c2ccccc21 [2,3-dichloro--1,4-naphtho-quinone, 2,3-dichloro-1,4-naphthoquinone, reference compound]
- Inhibition of growth of phytopathogenic fungi colonies, % Rhyzoctonia violaceae test field [3]: 32%
- Inhibition of growth of phytopathogenic fungi colonies, % Botrytis cinereae test field [4]: 37%
- Inhibition of growth of phytopathogenic fungi colonies, % Venturia inaequalis test field [5]: 39%
- Inhibition of growth of phytopathogenic fungi colonies, % Fusatium monili-forme test field [7]: 54%
- Inhibition of growth of phytopathogenic fungi colonies, % Verticillium albo--atrum test field [9]: 52%
- Inhibition of growth of phytopathogenic fungi colonies, % Rhyzoctonia violaceae test laboratory [19]: 34%
- Inhibition of growth of phytopathogenic fungi colonies, % Botrytis cinereae test laboratory [20]: 38%
- Inhibition of growth of phytopathogenic fungi colonies, % Venturia inaequalis test laboratory [21]: 40%
- Inhibition of growth of phytopathogenic fungi colonies, % Fusatium monili-forme test laboratory [23]: 55%
- Inhibition of growth of phytopathogenic fungi colonies, % Verticillium albo--atrum test laboratory [25]: 53%
